Consider one substance from patent US7754483B2, “Systems and methods for selection and maintenance of homogeneous and pluripotent human embryonic stem cells” (The Penn State Research Foundation, priority 2005, dated 2010).

One experiment concerns hES cells, H1 or H9. The experiment can be described thus: Liposomal ceramide treatment of hES cell colonies co-cultured with mouse feeder cells. The class given is cell-based.
The test system of experiment [1] is hES cells. The experiment can be described thus: In vitro differentiation of hES cells. Particulars: after elimination of ceramide-sensitive cells. The class given is cell-based, human. The source says:
Once separated from feeder cells and serum, hES cells typically spontaneously differentiate into progenitor cells and such cultures include ectoderm, mesoderm and endoderm progenitor cells. Similar to in vivo embryogenesis, further differentiation of these progenitor cells results in formation of terminally differentiated cell types illustratively including neurons, cardiomyocytes, endothelial, and pancreatic β-cells. The ability of hES cells to form all three embryonic lineages is one of the main criteria to determine their pluripotency. Early lineage differentiation is assessed using lineage specific markers. Exemplary lineage specific markers include nestin for ectodermal; α-fetoprotein for endodermal; and brachyury for mesodermal. Later stages of differentiation of these progenitor cells into specialized cells are assessed by assay of markers for more specialized cells representing three lineages, such as serotonergic neurons, insulin-positive cells, and cardiomyocytes.
To assess in vitro differentiation, hES cells are isolated and transferred into non-coated culture plates where hES cells form embryoid bodies (EBs). For neuronal differentiation, these EBs are treated with a neurobasal medium (insulin-transferrin-selenium) to induce neuroprogenitor cell formation for seven days. Then, bFGF ([…]) is added to medium for another seven days. […]

Experiment [2] has as its system hES cells maintained in feeder cells-free culture system. Put plainly: Liposomal ceramide treatment of hES cells in feeder cell-free culture (GFR-MATRIGEL). Particulars: five micromolar. The class given is cell-based, human. An excerpt: NIH-registered hES cell lines, H1 (WA-01; 46XY) and H9 (WA-09; 46XX), are maintained on mouse embryonic fibroblasts (feeder cells) as recommended by the WiCell Research Institute (Madison, Wis.). Mouse feeder cells are irradiated (7500 Rad) and plated (2×10^4 cells/cm^2) on 6-well plates pre-coated with 0.1% gelatin. Feeder cells are allowed to attach and grow overnight prior to hES cell co-culture. Human ES cells are maintained with Dulbecco's Modified Eagle Medium/F12 (Gibco) supplemented with 20% KnockOut serum replacement (Gibco), 1% nonessential amino acids (Gibco), 2 mM GlutaMAX-1 (Gibco), 4 ng/ml basic human FGF (Invitrogen) and 0.1 mM beta-mercaptoethanol (Sigma). Cells are manually passaged following 10 min of collagenase IV incubation (1 mg/ml) at 1:5-1:10 split ratio every 5-7 days. For feeder cell-free culture, hES cells are plated and cultured on 6-well dishes coated with growth factor reduced (GFR)-MATRIGEL, diluted 1:24 in DMEM/F12. Human ES cells co-cultured with feeder cells are treated with collagenase IV for 10 min, collected manually and plated in a 1:3-1:5 split ratio (day=0). Cells are maintained with normal hES cell culture medium until treatment with ceramide (day=2). […]
Light microscopy images of cells from 10 random fields are recorded using a Nikon TS-100 phase-contrast microscope and a Nikon CoolPix 5000 digital camera. […]

In experiment [3] the test system is hES cells. The experiment can be described thus: Apoptosis detection by TUNEL assay. The class given is cell-based, human. Conditions: Example 22, hESC colonies. The protocol: Ceramide-induced apoptosis is assessed and visualized by TUNEL assay using the In Situ Cell Death Detection Kit, TMR Red (Roche Applied Bioscience). A TUNEL (Terminal deoxynucleotidyl Transferase Biotin-dUTP Nick End Labeling) assay measures and quantitates apoptosis by labeling DNA strand breaks in individual cells and detecting them by fluorescence microscopy. Human ES cells are cultured on glass cover-slips coated with 0.1% gelatin and mouse feeder cells. When the majority of the colonies reached the size of 0.5-0.7 mm (usually by day 5 of the culture), cells are treated with liposomal C6-ceramide (3 micromolar final) or ghost (no ceramide) for 12 hr. Cells are incubated for 12 hr because cells undergoing apoptosis are still attached to the cover-slip, making observation convenient. After 12 hr, cells become round and detached. At the end of the treatment period, cells are fixed with 4% formaldehyde (Tousimis) in PBS. TUNEL assay is performed using the In Situ Cell Death Detection Kit, TMR Red (Roche Applied Bioscience) following the manufacturer's instructions. Briefly, cells are permeabilized by incubating in 0.1% PBST for 2 min on ice. TUNEL reaction mixture is prepared freshly by mixing 50 microliters of enzyme solution (terminal deoxynucleotidyl transferase) with 450 microliters label solution (nucleotide mixture). […]

Procedure for hES cells, H1 or H9: Mouse feeder cells are irradiated (7500 Rad) and plated (2×10^4 cells/cm^2) on 6-well plates pre-coated with 0.1% gelatin. Feeder cells are allowed to attach and grow overnight prior to hES cell co-culture. Human ES cells are maintained with Dulbecco's Modified Eagle Medium/F12 (Gibco) supplemented with 20% KnockOut serum replacement (Gibco), 1% nonessential amino acids (Gibco), 2 mM GlutaMAX-1 (Gibco), 4 ng/ml basic human FGF (Invitrogen) and 0.1 mM beta-mercaptoethanol (Sigma). Cells are manually passaged following 10 min of collagenase IV incubation (1 mg/ml) at 1:5-1:10 split ratio every 5-7 days. […] Human ES cells co-cultured with feeder cells are treated with collagenase IV for 10 min, collected manually and plated in a 1:3-1:5 split ratio (day=0). Cells are maintained with normal hES cell culture medium until treatment with ceramide (day=2).
Increasing concentrations, 1, 3, 5, 10, 15 and 30 micromolar, of liposomal C6-ceramide are added to hES cell culture medium after a majority of the colonies had reached a size between 0.5-0.7 mm in diameter (day 5-6 of the culture). Relative volumes of “ghost liposome” containing no ceramide are used as a control. These ghost liposomes contained an equal mass of total lipids as ceramide formulations. […]

Consider ceramide, for which the “effect on peripheral cells of H9 hESC colonies” value with hES cells, H1 or H9 (5 micromolar, 8 hrs, H9 (WA09), with MEF) is listed as “eliminates cells located on the periphery of the hESC colonies”. In addition, the “growth of central hESCs after addition of ceramide” value in the experiment on hES cells, H1 or H9 (Example 22) is reported as “continue their normal growth”. In addition, the “differentiation capability of ceramide-selected hES cells” value in the experiment with hES cells [1] is given as “capable of differentiated into ectoderm, mesoderm or endoderm progenitor cells”. Moreover, in experiment [2], the “effect on differentiation of hESCs without feeder cells” value was “inhibits differentiation and allows maintenance of undifferentiated stem cell growth”. Also, the “TUNEL: apoptosis after ceramide-conditioning” value in the experiment on hES cells [3] is on record as “hESCs on the periphery of the colonies are, indeed, undergoing apoptosis”.
